In patent US12624018B1, “Inhibitors of RIPK2 and medical uses thereof” (Odyssey Therapeutics, Inc., priority 2022, dated 2026):
Where two headings read alike, the source gives them in different places.

Tests used:
human NOD2 signaling = assay: Inhibition of human NOD2 signaling in HEK-Blue-hNOD2 cells (L18-MDP stimulated, SEAP reporter); format: cell-based; details: NOD2 ligand stimulation, SEAP reporter, read-out: hNOD2 IC50
In short: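 Read-out is SEAP absorbance at 620 nm after 3 h QUANTI-Blue development of supernatant from HEK293 cells carrying NOD2 and a SEAP reporter (12500/well). Cells got compound (10 points, 3-fold dilutions) and 0.5 ng/mL L18-MDP for 24 h at 37 °C; percent inhibition vs stimulated/unstimulated controls, 4-parameter IC50.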

RIPK2 enzyme = molecular target: T1, RIPK2 enzyme (Homo sapiens, UniProt O43353); assay: RIPK2 inhibition (ADP-Glo Kinase Assay); format: biochemical; details: RIPK2 5 nM, ATP 150 μM, MBP substrate, read-out: RIPK2 IC50
T1 construct: purchased Carna 09-128
T1 sequence (O43353 1-299 limits assumed): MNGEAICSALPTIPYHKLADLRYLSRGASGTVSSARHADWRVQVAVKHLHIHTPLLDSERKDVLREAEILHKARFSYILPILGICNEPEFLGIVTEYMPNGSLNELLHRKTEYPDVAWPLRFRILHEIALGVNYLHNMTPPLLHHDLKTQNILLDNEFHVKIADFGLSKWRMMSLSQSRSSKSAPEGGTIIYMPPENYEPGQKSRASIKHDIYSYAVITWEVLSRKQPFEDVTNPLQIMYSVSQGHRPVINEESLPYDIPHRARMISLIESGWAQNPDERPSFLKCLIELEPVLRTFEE
In short: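 Swine MBP substrate; compound and 5 nM RIPK2 first mixed for 30 min at room temperature; buffer pH 7.5 HEPES 50 mM with 10 mM MgCl2, 2 mM DTT, 1 mM EGTA, Brij-35, BSA.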

[1] = Homo sapiens, HEK-Blue hNOD2, HEK-Blue-hNOD2 cells

Row | IC50 (human NOD2 signaling; [1]) [nM] | IC50 (RIPK2 enzyme) [nM] | IC50 (human NOD2 signaling; HEK-Blue-hNOD2 cells) [nM] | Structure (SMILES)
1 | 17.5 | 2.8 | – | Cc1cc(CC(=O)Nc2cnn(C(C)(C)C)c2)ccc1Oc1ccnc2ccc(C(C)(O)C(N)=O)cc12 (single isomer, unassigned) [Compound 615, 2-(4-(4-(2-((1-(tert-butyl)-1H-pyrazol-4-yl)amino)-2-oxoethyl)-2-methylphenoxy)quinolin-6-yl)-2-hydroxypropanamide]
2 | 5.6 | < 2.5 | – | Cc1cc(CC(=O)Nc2cnn(C(C)(C)C)c2)ccc1Oc1ccnc2cc(F)c(S(=N)(=O)C3CC3)cc12 (single isomer, unassigned) [Compound 553, N-(1-(tert-butyl)-1H-pyrazol-4-yl)-2-(4-((6-(cyclopropane-sulfonimidoyl)-7-fluoroquinolin-4-yl)oxy)-3-methylphenyl) acetamide]
3 | – | < 2.5 | 0.7 | CCS(=N)(=O)c1ccc2nccc(Oc3ccc(CC(=O)Nc4cnn(C(C)(C)C)c4)c(F)c3C)c2c1 (single isomer, unassigned) [Compound 536, N-(1-(tert-butyl)-1H-pyrazol-4-yl)-2-(4-((6-(ethylsulfonimi-doyl)quinolin-4-yl)oxy)-2-fluoro-3-methylphenyl) acetamide]
4 | – | < 2.5 | 19.3 | Cc1cc(CC(=O)Nc2cnn(C(C)C(F)(F)F)c2)ccc1Oc1ccnc2ccc(S(C)(=O)=O)cc12 (single isomer, unassigned) [Compound 595, 2-(3-methyl-4-((6-(methylsulfonyl)quinolin-4-yl)oxy)phenyl)-N-(1-(1,1,1-trifluoropropan-2-yl)-1H-pyrazol-4-yl)acetamide]
5 | – | < 2.5 | 11.7 | Cc1cc(CC(=O)Nc2cc(C(C)(C)C)[nH]n2)ccc1Oc1ccnc2cc(F)c(S(C)(=N)=O)cc12 (single isomer, unassigned) [Compound 621, N-(5-(tert-butyl)-1H-pyrazol-3-yl)-2-(4-((7-fluoro-6-(S-methylsulfonimidoyl)quinolin-4-yl)oxy)-3-methylphenyl) acetamide]
6 | 1.4 | < 2.5 | – | CC(C)(C)c1cc(NC(=O)Cc2ccc(Oc3ccnc4cc(F)c(C(N)=O)cc34)c(C(F)F)c2)n[nH]1 [Compound 619, 4-(4-(2-((5-(tert-butyl)-1H-pyrazol-3-yl)amino)-2-oxoethyl)-2-(difluoromethyl)phenoxy)-7-fluoroquinoline-6-carboxamide]
7 | 2.2 | < 2.5 | – | CC(C)(C)n1cc(NC(=O)Cc2ccc(Oc3ccnc4cc(F)c(C(N)=O)cc34)c(C(F)F)c2)cn1 [Compound 575, 4-(4-(2-((1-(tert-butyl)-1H-pyrazol-4-yl)amino)-2-oxoethyl)-2-(difluoromethyl)phenoxy)-7-fluoroquinoline-6-carboxamide]
8 | 0.3 | < 2.5 | – | [2H]C([2H])([2H])c1cc(CC(=O)Nc2cnn(C(C)(C)C)c2)ccc1Oc1ccnc2ccc(S(=O)(=O)C([2H])([2H])[2H])cc12 [Compound 485, N-(1-(tert-butyl)-1H-pyrazol-4-yl)-2-(3-(methyl-d3)-4-((6-((methyl-d3)sulfonyl)quinolin-4-yl)oxy)phenyl)acetamide]

Second part, the molecule before the results:

Row | Structure (SMILES) | IC50 (human NOD2 signaling; [1]) [nM] | IC50 (RIPK2 enzyme) [nM] | IC50 (human NOD2 signaling; HEK-Blue-hNOD2 cells) [nM]
9 | Cc1c(Oc2ccnc3ccc(S(=N)(=O)C4CC4)cc23)ccc(CC(=O)Nc2cnn(C34CC(C3)C4)c2)c1F (single isomer, unassigned) [Compound 528, N-(1-(bicyclo[1.1.1]pentan-1-yl)-1H-pyrazol-4-yl)-2-(4-((6-(cyclopropanesul-fonimidoyl)quinolin-4-yl)oxy)-2-fluoro-3-methylphenyl) acetamide] | 0.8 | < 2.5 | –
10 | CNC(=O)c1cc2c(Oc3ccc(CC(=O)Nc4cnn(C(C)(C)C)c4)c(C#N)c3C)ccnc2cc1F [Compound 611, 4-(4-(2-((1-(tert-butyl)-1H-pyrazol-4-yl)amino)-2-oxoethyl)-3-cyano-2-methylphenoxy)-7-fluoro-N-methylquinoline-6-carboxamide] | 0.9 | < 2.5 | –
11 | Cc1ccnnc1-c1ccc2nccc(Oc3cc(F)c(CC(=O)Nc4cnn(C(C)(C)C)c4)cc3Cl)c2c1 [Compound 520, N-(1-(tert-butyl)-1H-pyrazol-4-yl)-2-(5-chloro-2-fluoro-4-((6-(4-methylpyridazin-3-yl)quinolin-4-yl)oxy)phenyl)acetamide] | 0.7 | < 2.5 | –
12 | [2H]C([2H])([2H])NC(=O)c1cc2c(Oc3ccc(CC(=O)Nc4cnn(C(C)(C)C)c4)cc3C(F)F)ccnc2cc1F [Compound 577, 4-(4-(2-((1-(tert-butyl)-1H-pyrazol-4-yl)amino)-2-oxoethyl)-2-(difluoromethyl)phenoxy)-7-fluoro-N-(methyl-d3)quinoline-6-carboxamide] | 2 | < 2.5 | –
13 | Cc1cc(CC(=O)Nc2cnn(C(C)(C)C)c2)c(F)cc1Oc1ccnc2ccc(-c3ncccc3C(F)(F)F)cc12 [Compound 522, N-(1-(tert-butyl)-1H-pyrazol-4-yl)-2-(2-fluoro-5-methyl-4-((6-(3-(trifluoromethyl)pyridin-2-yl)quinolin-4-yl)oxy)phenyl)acetamide] | 25.8 | 8.6 | –
14 | CNC(=O)C(C)(C)c1ccc2nccc(Oc3cc(F)c(CC(=O)Nc4cnn(C(C)(C)C)c4)cc3C)c2c1 [Compound 569, 2-(4-(4-(2-((1-(tert-butyl)-1H-pyrazol-4-yl)amino)-2-oxoethyl)-5-fluoro-2-methylphenoxy)quinolin-6-yl)-N,2-dimethylpropanamide] | 10.4 | < 2.5 | –
15 | [2H]C([2H])([2H])NC(=O)c1ccc2nccc(Oc3c(C)cc(CC(=O)Nc4cnn(C56CC(C5)C6)c4)cc3C)c2c1 [Compound 589, 4-(4-(2-((1-(bicyclo[1.1.1]pentan-1-yl)-1H-pyrazol-4-yl)amino)-2-oxoethyl)-2,6-dimethylphenoxy)-N-(methyl-d3)quinoline-6-carboxamide] | 48.6 | < 2.5 | –
16 | [2H]C([2H])([2H])C(n1cc(NC(=O)Cc2ccc(Oc3ccnc4ccc(S(C)(=O)=O)cc34)c(C)c2)cn1)(C([2H])([2H])[2H])C([2H])([2H])[2H] [Compound 597, 2-(3-methyl-4-((6-(methylsulfonyl)quinolin-4-yl)oxy)phenyl)-N-(1-(2-(methyl-d3)propan-2-yl-1,1,1,3,3,3-d6)-1H-pyrazol-4-yl)acetamide] | 1.3 | < 2.5 | –
17 | Cc1c(Oc2ccnc3ccc(S(=N)(=O)C(C)C)cc23)ccc(CC(=O)Nc2cnn(C(C)(C)C)c2)c1F (single isomer, unassigned) [Compound 537, N-(1-(tert-butyl)-1H-pyrazol-4-yl)-2-(2-fluoro-3-methyl-4-((6-(propan-2-ylsulfonimidoyl)quinolin-4-yl)oxy)phenyl) acetamide] | 0.4 | < 2.5 | –
18 | Cc1cc(CC(=O)Nc2cnn(C(C)(C)C)c2)cc(F)c1Oc1ccnc2cc(Cl)c(C(N)=O)cc12 [Compound 602, 4-(4-(2-((1-(tert-butyl)-1H-pyrazol-4-yl)amino)-2-oxoethyl)-2-fluoro-6-methylphenoxy)-7-chloroquinoline-6-carboxamide] | 8 | < 2.5 | –
19 | [2H]C([2H])([2H])NC(=O)c1cc2c(Oc3ccc(CC(=O)Nc4cnn(C(C)(C)C)c4)nc3C)ccnc2cc1F [Compound 614, 4-((6-(2-((1-(tert-butyl)-1H-pyrazol-4-yl)amino)-2-oxoethyl)-2-methylpyridin-3-yl)oxy)-7-fluoro-N-(methyl-d3)quinoline-6-carboxamide] | 3.7 | < 2.5 | –
20 | [2H]C([2H])([2H])C(n1cc(NC(=O)Cc2cc(C)c(Oc3ccnc4cc(F)c(C(=O)NC)cc34)c(F)c2)cn1)(C([2H])([2H])[2H])C([2H])([2H])[2H] [Compound 601, 7-fluoro-4-(2-fluoro-6-methyl-4-(2-((1-(2-(methyl-d3)propan-2-yl-1,1,1,3,3,3-d6)-1H-pyrazol-4-yl)amino)-2-oxoethyl)phenoxy)-N-methylquinoline-6-carboxamide] | 1.4 | < 2.5 | –
21 | CC(C)(C)n1cc(NC(=O)Cc2cc(Cl)c(Oc3ccnc4ccc(S(=N)(=O)C5CC5)cc34)cc2F)cn1 (single isomer, unassigned) [Compound 534, N-(1-(tert-butyl)-1H-pyrazol-4-yl)-2-(5-chloro-4-((6-(cyclopropanesulfonimidoyl)quinolin-4-yl)oxy)-2-fluorophenyl) acetamide] | – | < 2.5 | 6
22 | Cc1c(Oc2ccnc3cc(F)c(C(N)=O)cc23)ccc(CC(=O)Nc2cnn(C(C)(C)C)c2)c1C#N [Compound 610, 4-(4-(2-((1-(tert-butyl)-1H-pyrazol-4-yl)amino)-2-oxoethyl)-3-cyano-2-methylphenoxy)-7-fluoroquinoline-6-carboxamide] | 2.1 | < 2.5 | –
23 | CCc1nc(-c2ccc3nccc(Oc4cc(F)c(CC(=O)Nc5cnn(C(C)(C)C)c5)cc4C)c3c2)n[nH]1 [Compound 483, N-(1-(tert-butyl)-1H-pyrazol-4-yl)-2-(4-((6-(5-ethyl-1H-1,2,4-triazol-3-yl)quinolin-4-yl)oxy)-2-fluoro-5-methylphenyl)acetamide] | 0.6 | < 2.5 | –
24 | COc1cc2nccc(Oc3ccc(CC(=O)Nc4cnn(C(C)(C)C)c4)cc3C(F)F)c2cc1C(N)=O [Compound 578, 4-(4-(2-((1-(tert-butyl)-1H-pyrazol-4-yl)amino)-2-oxoethyl)-2-(difluoromethyl)phenoxy)-7-methoxy-quinoline-6-carboxamide] | 0.7 | < 2.5 | –
